Data on one substance can be found in patent US20110236395A1, “TREATMENT OF FIBROTIC EYE DISORDERS USING AN MMP2 INHIBITOR” (UNIVERSITY OF EAST ANGLIA, priority 2008, published 2011).

The subject of one data set is MMP2. Kind of data set: Gelatin zymography of MMP2 protein expression after siRNA transfection. The class given is cell-based, human. To be noted: over a 72 hour period, zymography of culture media. How it is done: FIG. 5. SiMMP2 suppresses MMP2 protein expression. […] However, throughout this period the MMP2 level in the siMMP2 treated cells is about 50% of the siRNA control cells (SCR). In FIG. 5A each left hand bar of the bar pairs reports the result with Scramble siRNA (indicated as “Scramble SiRNA” in the key) and the right hand bar reports the result in the presence of MMP2 specific siRNA (indicated as “MMP2 SiRNA” in the key).
Gelatinolytic activity of culture media was analyzed by electrophoresis under non-reducing conditions on a 7% SDS-polyacrylamide gel containing 0.5 mg/mL denatured collagen type I (gelatin; Sigma) as previously described by Gavrilovic J. et al. (Cell Regul. (1990) 1, pages 1003-14). After electrophoresis, gels were washed twice in 2.5% Triton-X 100 for 15 minutes and then incubated for 4 hours at 37° C. in 100 mM Tris-HCl (pH 7.9), 30 mM CaCl2, and 0.02% sodium azide. The gels were stained with Coomassie brilliant blue (Sigma), and the images were captured with a gel scanner.
Custom made MMP2 siRNA: sense 5′-[…]-3′ (SEQ. ID. NO: 1), antisense 5′-[…]-3′ (SEQ. ID. NO: 2) and siRNA negative control (universal scrambled siRNA) were used. Both siRNAs were purchased from Ambion Ltd. (Huntingdon, UK). FHL 124 cells were seeded onto 35-mm culture dishes at either 25,000 cells in 1.5 ml for protein extraction or as four patches of 5000 cells, for patch assay analysis. […]

A further data set deals with FHL 124 cells. Nature of the data set: Patch contraction assay (TGF-β-induced matrix contraction). It counts as cell-based, human. How it is done: FIG. 2. […] FHL 124 cells were seeded to form patches, maintained in serum-free medium before exposure to experimental conditions. All cultures were maintained for 72 hours in 5% EMEM (Eagle's minimal essential medium) alone or 5% FCS (fetal calf serum) EMEM supplemented with 10 ng/mL TGF-β1 or -β2±the MMP inhibitor GM6001 (25 μM). (A) Visual representations of patch assay cultures in different experimental conditions. (B) Quantified data showing differences in patch area. (C) Data showing differences in cell populations between patch areas (Coomassie blue dye was extracted and quantified from the same experiment as presented in (B)). In FIGS. 2(B) and (C) each left hand bar of the bar pairs reports the result in the absence of GM6001 (indicated as “−GM6001” in the key) and the right hand bar reports the result in the presence of GM6001 (indicated as “+GM6001” in the key). Data represent mean±SEM. * Indicates a significant difference from unstimulated control cells. # Indicates a significant difference between siMMP2 treated cells and SCR siRNA counterparts (p≦0.05, ANOVA with the Tukey test).
FIG. 6. MMP2 is important for TGF-β-induced matrix contraction. FHL 124 cells were seeded to form patches, then transfected with siRNA targeted to MMP2 or SCR negative control and maintained in Optimem™ (Invitrogen Corporation; Optimem is a modified EMEM, buffered with HEPES and sodium bicarbonate and supplemented with hypoxanthine, thymidine, sodium pyruvate, L-glutamine or Glutamax, trace elements and growth factor; the protein level is minimal (15 μg/mL) with insulin and transferrin being the only protein supplements; phenol red is included as a pH indicator). Patches were measured after 72 hours of culture with 10 ng/mL TGF-β1 or […]. (A) Visual representations of patch assay cultures in different experimental conditions. (B) Quantified data showing differences in patch area. (C) Data showing differences in cell populations between patch areas (Coomassie blue dye was extracted and quantified from the same experiment as presented in (B)). In FIGS. 6(B) and (C) each left hand bar of the bar pairs reports the result with Scramble siRNA (indicated as “Scramble SiRNA” in the key) and the right hand bar reports the result in the presence of MMP2 specific siRNA (indicated as “MMP2 SiRNA” in the key). The data in (B) and (C) represent the mean±SEM (n≦4). *Indicates a significant difference from unstimulated control cells. # Indicates a significant difference between siMMP2 treated cells and SCR siRNA counterparts (p≦0.05, ANOVA with the Tukey test).
FIG. 7. MMP2 inhibition using neutralising antibody ([…]) prevents TGF-β2 (10 ng/ml)-induced matrix contraction assessed by patch assay. In FIG. 7(B) each left hand bar of the bar pairs reports the result in the absence of the antibody (indicated as “−4 μg/ml Anti MMP2” in the key) and the right hand bar reports the result in the presence of the antibody (indicated as “+4 μg/ml Anti MMP2” in the key). Data expressed as Mean±SEM (n=3).
FHL 124 cells were seeded at four sites on a tissue culture dish at 5000 cells in 25 μl and maintained in EMEM supplemented with 5% FCS until confluent regions spanning about 5 mm developed (Wormstone et al, Exp. Eye Res. (2004), 78, pages 705-14). The medium was then replaced with non-supplemented EMEM, and the cells were cultured for a further 24 hours, followed by the removal of medium from four patch culture dishes fixed for 30 minutes with 4% formaldehyde at room temperature, followed by washing in PBS. The patches were used as a t=0 reference control.
All remaining cell cultures were exposed to experimental conditions for up to 3 days. Experiments were terminated after the appearance of cell-free regions (holes) within the central region of the patch, by fixation for 30 minutes with 4% formaldehyde at room temperature. […]

The mark [1] stands for this setting: siMMP2 transfected, 10 ng/ml TGF-β1 or TGF-β2, 72 hours.

“siMMP2: Custom made MMP2 siRNA: sense 5′-GGACACACUAAAGAAGAUGTT-3′, antisense 5′-CAUCUUCUUUAGUGUGUCCTT-3′, purchased from Ambion (chemistry not given here)”: in the data set with MMP2, the “MMP2 protein level relative to Scrambled siRNA control” value was “about 50%”. The “MMP2 protein level relative to Scrambled siRNA control” value in the data set with MMP2 (listed as siRNA against MMP2) was “approximately 50%”. Moreover, in the data set with FHL 124 cells (setting [1]), the TGF-β-induced contraction entry is recorded as “did not show any evidence of contraction” and the “patch area vs non-TGF-β-treated controls” value was “did not differ significantly from non-TGF-β-treated controls”. Moreover, in the data set with FHL 124 cells (siRNA transfected, non-stimulated conditions (no TGF-β)), the “patch area vs SCR control” value was “did not show a statistical difference in patch area from the SCR control”.
